Data: US3983239A, “Hexahydro-γ-carboline derivatives and their salts” (priority 1974, dated 1976)
“Also recorded” adds a separate entry of the source. Read-outs that look alike come from different tables or passages of the source.

Key:
[1] = system: methamphetamine-induced stereotypy; experiment: Potentiation of methamphetamine-induced stereotypy; type: in vivo, male Wistar HLA rats; design: key: ---: Marked antagonism; --: Moderate antagonism; -: Slight antagonism; 0: No interaction; +: Slight potentiation; ++: Moderate potentiation; +++: Marked potentiation; conditions: methamphetamine 2 mg/kg i.p.
Protocol: 1. Potentiation of methamphetamine-induced stereotypy
This test was carried out by a modified method of R. T. Naylor (Life Sci., Vol. 10, page 909, 1971).
To male Wistar HLA rats, weighing 200 to 250 g (each group: 6 rats), were intraperitoneally administered the compounds to be tested. After 20 minutes, methamphetamine (2 mg/kg) was intraperitoneally administered to the test animals, and then the appeared stereotypy was observed. The effects of the test compounds were evaluated by the intensity of the stereotypy and the termination thereof.

[2] = system: locomotion; experiment: Inhibiting activity of locomotion, mice (Animex method); type: in vivo; conditions: Mus musculus, po; mice, p.o.; read-out: ED50 value, inhibiting activity of locomotion
[3] = system: locomotion; experiment: Inhibiting activity of locomotion, rats (Open-field method); type: in vivo; conditions: Rattus norvegicus, rats, read-out: ED50 value, inhibiting activity of locomotion
Text: 3) Open-field method [C.S. Hall; J. Comp. Physiol. Psychol.

[4] = system: conditioned avoidance response; experiment: Inhibiting activity of conditioned avoidance response, mice; type: in vivo; conditions: Mus musculus, po; mice, p.o.; read-out: ED50 value, inhibiting activity of conditioned avoidance response
[5] = system: conditioned avoidance response; experiment: Inhibiting activity of conditioned avoidance response, rats (Shuttle box method); type: in vivo; conditions: Rattus norvegicus, po; rats, p.o.; read-out: ED50 value, inhibiting activity of conditioned avoidance response
[6] = system: catalepsy; experiment: Cataleptogenic activity, rats; type: in vivo; conditions: Rattus norvegicus, po; rats, p.o.; read-out: ED50 value, cataleptogenic activity
[7] = system: muscle relaxant activity; experiment: Muscle relaxant activity, rats; type: in vivo; conditions: Rattus norvegicus, rats, read-out: ED50 value, muscle relaxant activity
[8] = system: self-stimulation; experiment: Inhibiting activity of self-stimulation, rats; type: in vivo; conditions: Rattus norvegicus, po; rats, p.o.; read-out: ED50 value, inhibiting activity of self-stimulation
Text: 8) J. Olds et al; J. Comp. Physiol. Psychol., Vol. 47, page

[9] = Acute toxicity, mice; conditions: mouse, in vivo, observed 7 days
Text: (§1) Male and female STD-dd Y mice, weighing 20 to 22 g (each group: 10 mice) and male Wistar HLA rats, weighing 250 to 300 g (each group: 10 to 20 rats) were used.

[10] = system: central nervous system; experiment: Depression of the central nervous system (overall); conditions: in vivo
Text: 2. Depression of the central nervous system The compounds of the present invention show the same central nervous system depressing pattern as the existing neuroleptics, such as an inhibiting activity of locomotion, an inhibiting activity of conditioned avoidance response, a cataleptogenic activity, a muscle relaxant activity, an inhibiting activity of self-stimulation, and an anti-methamphetamine activity in terms of locomotor activity.

[11] = cited from earlier work
[12] = system: amphetamine; conditions: in vivo; cited from earlier work
[13] = Acute toxicity, rats; conditions: rat, in vivo, male, observed 7 days
Text: as §1

[14] = system: homovanillic acid (HVA) in brain; experiment: Effect on homovanillic acid (HVA) in brain; type: in vivo, male Wistar rats; conditions: Rattus norvegicus, read-out: dose that remarkably increased the HVA in the brain
Protocol: 3. Effect on homovanillic acid (HVA for short) in brain
This test was carried out by a modified method of T. Karasawa et al. [Life Sci., Vol. 15, page 1465 (1974)].
To male Wistar rats, weighing 160 to 200 g (each group: 5 rats), was administered 8-methyl-2-[γ-(p-fluorobenzoyl)propyl]-2,3,4,4a,5,9b-hexahydro-1H-pyrido[4,3-b]indole dihydrochloride (Compound A) intraperitoneally or orally. After 90 minutes in case of the intraperitoneal administration, or after 6 hours in case of the oral administration, the test animals were decapitated, and then the HVA in the brain was measured by a fluorometric method.

[15] = system: apomorphine-induced gnawing; experiment: Enhancement of apomorphine-induced gnawing; type: in vivo; conditions: 0.03-0.7 mg/kg s.c., rats
[16] = system: electroencephalogram (EEG); experiment: Activation of the electroencephalogram (EEG); type: in vivo; conditions: 5 mg/kg i.v., gallamine immobilized cats

SMILES	Stereotypy Intensity ([1]; 1.0 mg/kg i.p.)	Stereotypy Termination ([1]; 1.0 mg/kg i.p.)	Stereotypy Intensity ([1]; 2.0 mg/kg i.p.)	Stereotypy Termination ([1]; 2.0 mg/kg i.p.)	Stereotypy Intensity ([1]; 5.0 mg/kg i.p.)	Stereotypy Termination ([1]; 5.0 mg/kg i.p.)	Stereotypy Intensity ([1]; 10.0 mg/kg i.p.)	Stereotypy Termination ([1]; 10.0 mg/kg i.p.)	ED50 [2] [mg/kg]	ED50 ([3]; ip, i.p.) [mg/kg]	ED50 ([3]; po, p.o.) [mg/kg]	ED50 [4] [mg/kg]	ED50 [5] [mg/kg]	ED50 [6] [mg/kg]	ED50 ([7]; ip, i.p.) [mg/kg]	ED50 ([7]; po, p.o.) [mg/kg]	ED50 [8] [mg/kg]	LD50 at 168 h ([9]; ip, male) [mg/kg]	LD50 at 168 h ([9]; iv, male) [mg/kg]	LD50 at 168 h ([9]; po, male) [mg/kg]	other results
Cc1ccc2c(c1)C1CN(C)CCC1N2 (stereo not drawn) [Dicarbine, 2,8-dimethyl-2,3,4,4a,5,9b-hexahydro-1H-pyrido[4,3-b]indole]	0	0	+	++	++	+++	+++	+++	150	28.7	> 200	119	> 100	> 100	60.3	> 100	> 100	153	79	357	LD50 at 168 h ([9]; sc, male): 237 mg/kg; central nervous system depressing activities (in words) [10]: far weak in comparison with those of the present compounds; activity in clinical trials [11]: antipsychotic activity and a thymoleptic activity; activity against amphetamine [12]: antagonism against amphetamine and also an activity of potentiating the amphetamine-induced stereotypy
Cc1ccc2c(c1)C1CN(CCCC(=O)c3ccc(F)cc3)CCC1N2.Cl.Cl (stereo not drawn) [Compound A, 8-Methyl-2-[γ-(p-fluorobenzoyl)propyl]-2,3,4,4a,5,9b-hexahydro-1H-pyrido[4,3-b]indole dihydrochloride]	0	0	++	++	+++	+++	+++	+++	9.3	2.8	33.2	10	23.8	34	3.16	11.2	61.8	134	59	589	LD50 at 168 h ([9]; ip, female): 95 mg/kg; LD50 at 168 h ([9]; po, female): 339 mg/kg; LD50 at 168 h ([9]; sc, male): 373 mg/kg; LD50 at 168 h ([13]; ip): 146 mg/kg; LD50 at 168 h ([13]; iv): 51 mg/kg; LD50 at 168 h ([13]; po): 812 mg/kg; LD50 at 168 h ([13]; sc): 592 mg/kg; minimal effective dose ([14]; ip, 1.5 h, i.p., 90 minutes after administration): ≥ 5 mg/kg; minimal effective dose ([14]; po, 6 hours after administration): ≥ 13 mg/kg; incidence of gnawing after apomorphine [15]: increased the incidence of gnawing; spontaneous EEG, arousal time in the hippocampus [16]: prolongation of arousal time in the hippocampus; spontaneous EEG, cortex [16]: low-voltage high frequency in the cortex; central nervous system depressing activities (in words) ([10]; dihydrochloride): somewhat inferior to those of chlorpromazine; also recorded: almost comparable to those of clozapine; also recorded: far superior to those of dicarbine
